From patent US20240381872A1, “SUBSTITUTED 2,3-DIHYDRO[1,3]THIAZOLO[4,5-B]PYRIDINES, SALTS THEREOF AND THEIR USE AS HERBICIDALLY ACTIVE SUBSTANCES” (BAYER AKTIENGESELLSCHAFT, priority 2021, published 2024)

Tests used:
Assay type in all cases: in vivo
[1] = tested on: Setaria viridis (SETVI); assay: Herbicidal pre-emergence action, section C (Table C8); details: visual grading after ca. 3 weeks; for pest or weed control at 80 g/ha / pest or weed control at 320 g/ha: Setaria viridis, pre-emergence, 504 h, read-out: pre-emergence activity against SETVI in %
Method in brief: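 Greenhouse pre-emergence test on sandy loam: spray of formulated compound onto covering soil at 600 l water/ha, then percent damage judged by eye after ca. 3 weeks relative to untreated pots.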

[2] = tested on: Setaria viridis (SETVI); assay: Herbicidal post-emergence action, section E (Table E8); details: visual assessment ca. 3 weeks after spraying; for post-emergence activity against SETVI in % / pest or weed control at 320 g/ha: application rate 320 g/ha
Source text: (§1) Seeds of mono- and dicotyledonous weed plants and crop plants were sown, in plastic or organic planting pots, in sandy loam, covered with soil and grown in a greenhouse under controlled growth conditions. 2 to 3 weeks after sowing, the test plants were sprayed in the single-leaf stage. The compounds according to the invention, formulated in form of wettable powders (WP) or as emulsifiable concentrates (EC), were sprayed onto the green plant parts as aqueous suspension or emulsion, with the addition of 0.5% of an additive, at an application rate of 600 l of water/ha (converted). The test plants were placed in the greenhouse for ca. 3 weeks under optimum growth conditions, and then the effect of the preparations was assessed visually in comparison with untreated controls (herbicidal effect in percent (%): 100% effect=plants have died off, 0% effect=as control plants).

[3] = tested on: Alopecurus myosuroides (ALOMY); assay: Herbicidal post-emergence action, section B (Table B2); details: rated visually about 3 weeks after treatment vs untreated controls, 100% = plants have died, 0% = like control plants
Protocol: (§2) Seeds of mono- and dicotyledonous weed plants were placed in plastic pots in sandy loam soil (doubly sown with in each case one species of mono- or dicotyledonous weed plants per pot), covered with soil and cultivated in a greenhouse under controlled growth conditions. 2 to 3 weeks after sowing, the test plants were treated at the one-leaf stage. The compounds of the invention, formulated in the form of wettable powders (WP) or as emulsion concentrates (EC), were applied onto the green parts of the plants as aqueous suspension or emulsion with addition of 0.5% additive at a water application rate of 600 liters per hectare (converted). After the test plants had been kept in the greenhouse under optimum growth conditions for about 3 weeks, the activity of the preparations was rated visually in comparison to untreated controls. For example, 100% activity=the plants have died, 0% activity=like control plants.

[4] = tested on: Kochia scoparia (KCHSC); assay: Herbicidal pre-emergence action, section A (Table A4); details: visual grading after ca. 3 weeks vs untreated controls; for pest or weed control at 1280 g/ha: Bassia scoparia, pre-emergence, 504 h, read-out: pre-emergence activity against KCHSC in %
Method in brief: (§3)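 Seeds sown in sandy loam and covered with soil; compounds formulated as WP or EC were applied to the soil surface as aqueous suspension or emulsion with 0.5% additive at 600 l water/ha. Pots kept in greenhouse under optimum conditions; damage scored visually after ca. 3 weeks versus untreated controls (0–100%).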

[5] = tested on: Amaranthus retroflexus (AMARE); assay: Herbicidal pre-emergence action, section A (Table A11); details: for pest or weed control at 1280 g/ha / pest or weed control at 320 g/ha: Amaranthus retroflexus, 504 h, read-out: pre-emergence activity against AMARE in %
Method in brief: as §3

[6] = tested on: Matricaria inodora (MATIN); assay: Herbicidal post-emergence action, section B (Table B6); details: visual rating about 3 weeks after treatment vs untreated controls; for pest or weed control at 1280 g/ha: Tripleurospermum inodorum, post-emergence, 504 h, read-out: post-emergence activity against MATIN in %
Protocol: as §2

[7] = tested on: Abutilon theophrasti (ABUTH); assay: Herbicidal pre-emergence action, section C (Table C1); details: visual grading after ca. 3 weeks vs untreated controls
Source text: (§4) Seeds of mono- and dicotyledonous weed plants and crop plants were sown, in plastic or organic planting pots, in sandy loam and covered with soil. The compounds according to the invention, formulated in the form of wettable powders (WP) or as emulsifiable concentrates (EC), were applied to the surface of the covering soil as aqueous suspension or emulsion, with the addition of 0.5% of an additive, at an application rate of 600 l of water/ha (converted). Following treatment, the pots were placed in a greenhouse and kept under optimum growth conditions for the test plants. The visual grading of the damage to the test plants was carried out after ca. 3 weeks in comparison to untreated controls (herbicidal effect in percent (%): 100% effect=plants have died off, 0% effect=as control plants).

[8] = tested on: Viola tricolor (VIOTR); assay: Herbicidal pre-emergence action, section C (Table C9); details: visual grading after ca. 3 weeks; for pest or weed control at 80 g/ha / pest or weed control at 320 g/ha: Viola tricolor, pre-emergence, 504 h, read-out: pre-emergence activity against VIOTR in %
Source text: as §4

[9] = tested on: Brassica napus (BRSNW); assay: Post-emergence effects on crop plants, section F (Table F5); details: for post-emergence activity against BRSNW in %: crop plant damage
Method in brief: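 After sowing in sandy loam and 2–3 weeks' greenhouse growth, single-leaf plants received foliar sprays (WP or EC, 0.5% additive, 600 l/ha water, ≤320 g/ha). Around 3 weeks on, herbicidal effect was estimated by eye, 0% meaning like controls and 100% meaning plants died.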

[10] = tested on: Kochia scoparia (KCHSC); assay: Herbicidal post-emergence action, section E (Table E11); details: visual assessment ca. 3 weeks after spraying
Source text: as §1

[11] = tested on: Kochia scoparia (KCHSC); assay: Herbicidal pre-emergence action, section C (Table C13); details: application rate 320 g/ha; visual grading after ca. 3 weeks
Source text: as §4

[12] = Setaria viridis, 504 h, read-out: post-emergence activity against SETVI in %

COC(=O)CCC(=O)N1CSc2cc(Cl)c(-c3ccccc3F)nc21 [Example I-003]
pre-emergence activity against SETVI in % ([1]; application rate 320 g/ha): 100% | post-emergence activity against SETVI in % [2]: 80% | post-emergence activity against ALOMY ([3]; application rate 320 g/ha): 100% | pre-emergence activity against KCHSC in % ([4]; application rate 1280 g/ha): 100% | pre-emergence activity against AMARE in % ([5]; application rate 1280 g/ha): 90%

Cc1cc2c(nc1-c1ccccc1F)NCS2 [Example I-007, 5-(2-fluorophenyl)-6-methyl-2,3-dihydro[1,3]thiazolo[4,5-b]pyridine]
pest or weed control at 1280 g/ha ([6]; application rate 1280 g/ha): 90% | pest or weed control at 80 g/ha ([1]; application rate 80 g/ha): 100% | pest or weed control at 80 g/ha ([2]; Setaria viridis, 504 h, application rate 80 g/ha, read-out: post-emergence activity against SETVI in %): 90% | pest or weed control at 320 g/ha ([3]; Alopecurus myosuroides, post-emergence, 504 h, application rate 320 g/ha, read-out: post-emergence activity against ALOMY): 90% | pest or weed control at 320 g/ha ([7]; Abutilon theophrasti, pre-emergence, 504 h, application rate 320 g/ha, read-out: pre-emergence activity against ABUTH in %): 80% | pest or weed control at 1280 g/ha ([4]; application rate 1280 g/ha): 90% | pest or weed control at 1280 g/ha ([5]; application rate 1280 g/ha): 90%

CCc1ccccc1-c1nc2c(cc1C)[S+]([O-])CN2 (stereo not drawn) [Example I-047]
pest or weed control at 320 g/ha ([1]; application rate 320 g/ha): 100% | pest or weed control at 80 g/ha ([8]; application rate 80 g/ha): 90% | crop plant damage (phytotoxicity) in % at 320 g/ha ([9]; Brassica napus, 504 h, application rate 320 g/ha, read-out: post-emergence activity against BRSNW in %): 20% | pest or weed control at 1280 g/ha ([5]; application rate 1280 g/ha): 90%

CCS(=O)(=O)N1CSc2cc(C)c(-c3ccccc3F)nc21 [Example I-060, 3-(ethylsulfonyl)-5-(2-fluorophenyl)-6-methyl-2,3-dihydro[1,3]thiazolo[4,5-b]pyridine]
pest or weed control at 1280 g/ha ([6]; application rate 1280 g/ha): 90% | pest or weed control at 80 g/ha ([1]; application rate 80 g/ha): 100% | pest or weed control at 320 g/ha [2, 12]: 90% | pest or weed control at 1280 g/ha ([3]; Alopecurus myosuroides, post-emergence, 504 h, application rate 1280 g/ha, read-out: post-emergence activity against ALOMY): 90% | pest or weed control at 80 g/ha ([8]; application rate 80 g/ha): 90% | pest or weed control at 80 g/ha ([7]; Abutilon theophrasti, pre-emergence, 504 h, application rate 80 g/ha, read-out: pre-emergence activity against ABUTH in %): 90% | pest or weed control at 1280 g/ha ([4]; application rate 1280 g/ha): 100% | pest or weed control at 320 g/ha ([5]; application rate 320 g/ha): 90%

CC(C)C(=O)N1C[S+]([O-])c2cc(Br)c(-c3ccccc3)nc21 (stereo not drawn) [Example I-067]
pest or weed control at 320 g/ha ([1]; application rate 320 g/ha): 100% | pest or weed control at 320 g/ha [2, 12]: 80% | pest or weed control at 320 g/ha ([8]; application rate 320 g/ha): 100% | crop plant damage (phytotoxicity) in % at 80 g/ha ([9]; Brassica napus, 504 h, application rate 80 g/ha, read-out: post-emergence activity against BRSNW in %): 0%

CCS(=O)(=O)N1C[S+]([O-])c2cc(C)c(-c3ccccc3C)nc21 (stereo not drawn) [Example I-074]
pest or weed control at 320 g/ha ([1]; application rate 320 g/ha): 100% | pest or weed control at 320 g/ha ([8]; application rate 320 g/ha): 90% | pest or weed control at 1280 g/ha ([4]; application rate 1280 g/ha): 100% | pest or weed control at 320 g/ha ([5]; application rate 320 g/ha): 90%

Cc1cc2c(nc1-c1ccccc1F)N(C(=O)C1(C)CC(Cl)=NO1)CS2 (stereo not drawn) [Example I-083]
post-emergence activity against MATIN in % ([6]; application rate 320 g/ha): 90% | pre-emergence activity against SETVI in % ([1]; application rate 80 g/ha): 100% | post-emergence activity against SETVI in % [2]: 80% | post-emergence activity against ALOMY ([3]; application rate 1280 g/ha): 90% | pre-emergence activity against VIOTR in % ([8]; application rate 80 g/ha): 90% | pre-emergence activity against ABUTH in % ([7]; application rate 320 g/ha): 90% | pre-emergence activity against KCHSC in % ([4]; application rate 320 g/ha): 90% | pre-emergence activity against AMARE in % ([5]; application rate 320 g/ha): 100%

Cc1cc2c(nc1-c1ccccc1)N(C(=O)C1(C)CC(Cl)=NO1)CS2 (stereo not drawn) [Example I-088]
post-emergence activity against MATIN in % ([6]; application rate 1280 g/ha): 90% | pre-emergence activity against SETVI in % ([1]; application rate 80 g/ha): 100% | post-emergence activity against KCHSC in % ([10]; application rate 320 g/ha): 80% | pre-emergence activity against VIOTR in % ([8]; application rate 320 g/ha): 90% | post-emergence activity against BRSNW in % ([9]; application rate 80 g/ha): 0% | pre-emergence activity against ABUTH in % ([7]; application rate 320 g/ha): 90% | pre-emergence activity against KCHSC in % ([4]; application rate 1280 g/ha): 90% | pre-emergence activity against AMARE in % ([5]; application rate 320 g/ha): 90% | pre-emergence activity against KCHSC in % [11]: 90%

Cc1cc2c(nc1-c1cccc(C)c1F)NCS2 [Example I-113]
post-emergence activity against MATIN in % ([6]; application rate 1280 g/ha): 90% | pre-emergence activity against SETVI in % ([1]; application rate 320 g/ha): 100% | post-emergence activity against ALOMY ([3]; application rate 1280 g/ha): 90% | post-emergence activity against BRSNW in % ([9]; application rate 320 g/ha): 20% | pre-emergence activity against KCHSC in % ([4]; application rate 320 g/ha): 90% | pre-emergence activity against AMARE in % ([5]; application rate 320 g/ha): 90% | pre-emergence activity against KCHSC in % [11]: 80%

Cc1cc2c(nc1-c1ccccc1F)N(S(=O)(=O)Cc1ccc(F)cc1)CS2 [Example I-122]
post-emergence activity against MATIN in % ([6]; application rate 1280 g/ha): 90% | pre-emergence activity against SETVI in % ([1]; application rate 320 g/ha): 100% | post-emergence activity against SETVI in % [2]: 80% | post-emergence activity against ALOMY ([3]; application rate 1280 g/ha): 90% | post-emergence activity against KCHSC in % ([10]; application rate 80 g/ha): 80% | pre-emergence activity against VIOTR in % ([8]; application rate 320 g/ha): 80% | post-emergence activity against BRSNW in % ([9]; application rate 80 g/ha): 0% | pre-emergence activity against KCHSC in % ([4]; application rate 320 g/ha): 90% | pre-emergence activity against AMARE in % ([5]; application rate 320 g/ha): 90% | pre-emergence activity against KCHSC in % [11]: 90%
